This is an account of results in US20040074272A1, “Controlled release urea product and method of preparing said product” (priority 2001, published 2004).

Data set [1] in a line: feeding trial in sheep fitted with rumen cannulae, rumen ammonia profile. In kind it is in vivo. How it is done:
Samples consisted of prilled urea-cement matrix coated with a primer of the type oxychloride cement followed by 3 or 4 layers of rosin and calcium carbonate.
The experiment was carried out with sheep fitted with rumen cannulae. Sheep were fed on a control diet of 63% grass hay and 37% of unmollassed sugarbeet pulp. Control diet was then supplemented with 1.3% urea (or urea equivalent in the is form of a controlled-release product) and added directly into the rumen to avoid excess chewing, which is known to be more intense in sheep compared to cattle. Data from the feeding trials are described in Table 4 and FIG. 3.

Data set [2] in a line: in vitro solubility assay of urea in water at 39° C. In kind it is physicochemical. To be noted: 50 mg urea in 50 ml water at 39° C. On the procedure:
The coating layers consisted of rosin only or a combination of primer and rosin. […] Fifty mg urea was incubated in 50 ml water at 39° C. Samples (1 ml) were taken after 1, 2, 4 and 7.5 h incubation. Urea concentration was estimated by spectrophotometry.

`NC(N)=O` [Urea, urea]: the Rumen ammonia in data set [1] (0 h after feeding, diet supplemented with 1.3% urea or urea equivalent, added directly into the rumen) is given as 8.8 mg N/100 ml; in data set [1] (1 h after feeding, 1.3% urea or urea equivalent into the rumen), 33.3 mg N/100 ml; in data set [1] (2 h after feeding, 1.3% urea or urea equivalent into the rumen) it was 25.0 mg N/100 ml; in data set [1] (4 h after feeding, 1.3% urea or urea equivalent into the rumen) it was 10.7 mg N/100 ml; in data set [1] (8 h after feeding, 1.3% urea or urea equivalent into the rumen), 6.6 mg N/100 ml; in data set [1] (12 h after feeding, 1.3% urea or urea equivalent into the rumen), 9.0 mg N/100 ml. The “Urea solubilized (%)” value in data set [2] (incubation time 1 h) stood at 98.9%; in data set [2] (incubation time 2 h) it was 100.1%; in data set [2] (incubation time 4 h), 99.3%; in data set [2] (incubation time 7.5 h), 100.6%.
